Like-named read-outs stand apart in the source and are kept apart here.
How the values were obtained:
[1] = rats and mice, up to 10 g/kg; reported in WO 96/34846; cited from earlier work
[2] = Miscibility / physical state of oral compositions in vehicle; format: physicochemical; conditions: room temperature (about 20° C.)
From the text: Formulations of the present invention suitable for oral administration may be in the form of discrete units such as capsules, cachets, tablets or lozenges, each containing a predetermined amount of the active ingredient; in the form of a powder or granules; in the form of a solution or a suspension in an aqueous liquid or non-aqueous liquid; or in the form of an oil-in-water emulsion or a water-in-oil emulsion. The active ingredient may also be in the form of a bolus, electuary or paste. For such formulations, a range of dilutions of the active ingredient in the vehicle is suitable, such as from 1% to 99%, preferably 5% to 50% and more preferably 10% to 25% dilution. Depending upon the level of dilution, the formulation will be either a liquid at room temperature (in the region of about 20° C.) or a low-melting solid.

[3] = Nervonic acid composition of total polar lipid from mouse brain (Example 9); format: in vivo; conditions: CREAE-inoculated mice
Description: (§1) Upon termination of certain biological evaluations, rat or mice brains were extracted and the fatty acid composition of total polar lipids from rat/mouse brain was determined.
(§2) Biological material was sent for analysis to Dr J. Hendersen at the University of Stirling, Institute of Aquaculture, Scotland. Analyses were carried out on two batches of experiments (detailed respectively in Example 6 and Example 7).

[4] = tested on: chronic EAE in the Biozzi mouse model; assay: NA:NA and NA:GLA in ethyl oleate in chronic relapsing EAE (Example 7); format: in vivo; conditions: for AG: Percentage of mice in the group / CFT: Percentage of mice in the group / CHLP: Percentage of mice in the group / HLH: Percentage of mice in the group / PFT: Percentage of mice in the group / PHLP: Percentage of mice in the group: ethyl oleate vehicle
Description: (§3) Male Biozzi mice weighing 30-35 g were injected in each flank with 0.15 mL of an emulsion containing lyophilised mouse spinal cord, phosphate buffered saline and incomplete Freund's adjuvant supplemented with Mycobacterium butyricum and Mycobacterium tuberculosis H37Ra.
(§4) 1: Partial Flaccid Tail (PFT), 2: Complete Flaccid Tail (CFT), 3: Impaired Righting Reflex (IRR), 4: Ataxic Gait (AG), 5: Hind Limb Hypotonia (HLH), 6: Partial Hind Limb Paralysis (PHLP), 7: Complete Hind Limb Paralysis (CHLP), 8: Moribund (M), 9: Dead (D).

[5] = tested on: CREAE in the Biozzi mouse model; assay: NA:NA and NA:GLA in Miglyol 810 in CREAE (Example 8); format: in vivo
Description: as §3, §4
Therefore, Miglyol appeared well-suited for use as a vehicle in subsequent studies to determine the efficacy of compounds in CREAE. Therefore, using Miglyol 810 as the new vehicle, prophylactic effects of NA:NA and NA:GLA were re-assessed on CREAE in the Biozzi mouse model (90% dilution, 1000 mg/kg/day, up to 43 days PI).

[6] = Nervonic acid composition of total polar lipid from rat brain (Example 9); format: in vivo; conditions: after Example 6 treatments; NA:GLA at both low and high doses
Description: as §1, §2

[7] = tested on: neurological EAE in the Lewis rat; conditions: for Number diseased/total: 5 days prior to inoculation and 25 days PI
Description: Male Lewis rats, weighing 230-280 g on the day of inoculation, were injected in each rear footpad with 0.1 ml of an emulsion containing equal parts of guinea pig spinal cord; phosphate buffered saline (PBS) and incomplete Freund's adjuvant supplemented with 10 mg/ml Mycobacterium tuberculosis H37Ra.
Animals were weighed daily and assessed for neurological disease from day 7 post-inoculation (PI). Rats displaying symptoms of EAE were scored as follows: 1: flaccid tail (FT), 2: hind limb hypotonia (HLH), 3: partial hind limb paralysis (PHLP), 4: complete hind limb paralysis (CHLP), 5: moribund or dead.
NA:GLA (neat oil) was orally administered 5 days prior to inoculation and continued for 25 days PI, at a dose of 750 mg/kg body weight/day and 1000 mg/kg body weight/day. NA:DHA (neat oil) was given by an identical dosing regime at a dose of 500 mg/kg body weight/day. Control-sensitised animals received PBS vehicle or were undosed. Undosed, vehicle and low dose NA:GLA treatments contained 7 animals. Four rats received high dose NA:GLA and 3 rats were dosed with NA:DHA.

[8] = Biozzi mouse, 10% w/w in ethyl oleate, 1000 mg/kg body weight/day
[9] = acute phase, Biozzi mouse, 10% w/w in ethyl oleate, 1000 mg/kg body weight/day
[10] = relapse phase, Biozzi mouse, 10% w/w in ethyl oleate, 1000 mg/kg body weight/day
[11] = acute phase, Miglyol 810 vehicle, 1000 mg/kg/day
[12] = acute phase, Miglyol 810 vehicle, n=12, NA:GLA n=11
[13] = relapse phase, Miglyol 810 vehicle, 1000 mg/kg/day
[14] = relapse phase, Miglyol 810 vehicle, NA:GLA n=9, NA:NA n=11

CCCCC/C=C\C/C=C\C/C=C\CCCCC(=O)OCCCOC(=O)CCCC/C=C\C/C=C\C/C=C\CCCCC [GLA:GLA, 1,3-Di(z,z,z-6,9,12-Octadecatrienoyloxy)propane]
evidence of diarrhea (absence of toxicity) [1]: without evidence of diarrhea

CCCCC/C=C\C/C=C\C/C=C\CCCCC(=O)OCCCOC(=O)CCCCCCCCCCCCC/C=C\CCCCCCCC [NA:GLA, 1-(z-15-tetracosenoyloxy)-3-(z,z,z-6,9,12-octadecatrienoyloxy)propane]
miscibility of compositions with vehicle [2]: miscible in all proportions at room temperature
NA levels in mouse brain lipids compared to undosed and vehicle [3]: enhancement of the NA levels in brain lipids
Acute and relapse symptoms (mean neurological scores) [4, 8]: markedly reduced
onset of relapse [4, 8]: delayed, but not significantly
Mean day of symptom loss [4, 9]: 30.0 ± 1.4 days
Mean day of symptom onset [4, 9]: 21.7 ± 4.2 days
Mean duration of symptoms [4, 9]: 5.7 ± 1.5 days
Number of dead mice [4, 9]: 0/10
No. of diseased mice ([4]; acute phase, Biozzi mouse, […], oral 1000 mg/kg body weight/day, 5 days prior to inoculation and 43 days PI, n=10): 3/10
AG: Percentage of mice in the group ([4]; acute phase, n=10): 20%
CFT: Percentage of mice in the group ([4]; acute phase, n=10): 20%
CHLP: Percentage of mice in the group ([4]; acute phase, n=10): 20%
HLH: Percentage of mice in the group ([4]; acute phase, n=10): 30%
PFT: Percentage of mice in the group ([4]; acute phase, n=10): 20%
PHLP: Percentage of mice in the group ([4]; acute phase, n=10): 20%
Mean day of symptom onset [4, 10]: 42.0 ± 1.0 days
No. of diseased mice [4, 10]: 3/10
Number of dead mice [4, 10]: 0/10
AG: Percentage of mice in the group ([4]; relapse phase, n=10): 10%
CFT: Percentage of mice in the group ([4]; relapse phase, n=10): 10%
CHLP: Percentage of mice in the group ([4]; relapse phase, n=10): 0%
HLH: Percentage of mice in the group ([4]; relapse phase, n=10): 30%
PFT: Percentage of mice in the group ([4]; relapse phase, n=10): 10%
PHLP: Percentage of mice in the group ([4]; relapse phase, n=10): 0%
effect on the neurological course of CREAE ([5]; Biozzi mouse, Miglyol 810 vehicle, 1000 mg/kg/day): clearly reduced the intensity of neurological deficits during both acute and relapsing phases
No. of diseased mice ([5]; acute phase, Biozzi mouse, Miglyol 810 vehicle (90% dilution), 1000 mg/kg/day, up to 43 days PI): 10/11
Mean day of symptom loss [5, 11]: 25.9 ± 2.0 days
Mean day of symptom onset [5, 11]: 17.9 ± 2.6 days
Mean duration of symptoms [5, 11]: 6.9 ± 3.0 days
Number of dead mice [5, 11]: 1/11
AG: Percentage of mice in the group [5, 12]: 73%
CFT: Percentage of mice in the group [5, 12]: 82%
CHLP: Percentage of mice in the group [5, 12]: 36%
D (dead): Percentage of mice in the group [5, 12]: 9%
HLH: Percentage of mice in the group [5, 12]: 73%
IRR: Percentage of mice in the group [5, 12]: 82%
M (moribund): Percentage of mice in the group [5, 12]: 0%
PFT: Percentage of mice in the group [5, 12]: 91%
PHLP: Percentage of mice in the group [5, 12]: 46%
D (dead): Percentage of mice in the group ([5]; mouse, in vivo): 22%
M (moribund): Percentage of mice in the group ([5]; mouse, in vivo): 11%
Mean day of symptom loss [5, 13]: 39.8 ± 5.0 days
Mean day of symptom onset [5, 13]: 33.1 ± 4.9 days
Mean duration of symptoms [5, 13]: 7.0 ± 4.2 days
No. of diseased mice [5, 13]: 8/9
Number of dead mice [5, 13]: 3/9
AG: Percentage of mice in the group [5, 14]: 56%
CFT: Percentage of mice in the group [5, 14]: 67%
CHLP: Percentage of mice in the group [5, 14]: 44%
HLH: Percentage of mice in the group [5, 14]: 56%
IRR: Percentage of mice in the group [5, 14]: 67%
PFT: Percentage of mice in the group [5, 14]: 89%
PHLP: Percentage of mice in the group [5, 14]: 56%
NA levels in rat brain lipids compared to normal, undosed and vehicle treated animals [6]: marked increase of NA levels
CHLP: Number of animals showing symptoms/total ([7]; 750 mg/kg/day): 3/7
FT: Number of animals showing symptoms/total ([7]; 750 mg/kg/day): 7/7
HLH: Number of animals showing symptoms/total ([7]; 750 mg/kg/day): 7/7
PHLP: Number of animals showing symptoms/total ([7]; 750 mg/kg/day): 4/7
CHLP: Number of animals showing symptoms/total ([7]; 1000 mg/kg/day): 1/4
FT: Number of animals showing symptoms/total ([7]; 1000 mg/kg/day): 4/4
HLH: Number of animals showing symptoms/total ([7]; 1000 mg/kg/day): 4/4
PHLP: Number of animals showing symptoms/total ([7]; 1000 mg/kg/day): 2/4
effect on onset, incidence and severity of disease ([7]; 750 and 1000 mg/Kg body weight/day, compared to control groups): delayed the onset and clearly reduced the incidence and severity of disease
animals that experienced CHLP ([7]; high dose): 25%
animals that experienced PHLP ([7]; high dose): 50%
mean cumulative clinical scores ([7]; low and high dose (750 and 1000 mg/kg/day)): consistently lower than control values
animals that experienced CHLP ([7]; low dose): 43%
animals that experienced PHLP ([7]; low dose): 57%
Mean day of final symptom loss (±SD) ([7]; neat oil oral 750 mg/kg/day): 19.0 ± 0.8 days
Mean day of symptom onset (±SD) ([7]; neat oil oral 750 mg/kg/day): 11.3 ± 0.8 days
Number of dead/total ([7]; neat oil oral 750 mg/kg/day): 0/7
Number diseased/total ([7]; neat oil oral 750 mg/kg/day): 7/7
Mean day of final symptom loss (±SD) ([7]; neat oil oral 1000 mg/kg/day): 18.8 ± 1.3 days
Mean day of symptom onset (±SD) ([7]; neat oil oral 1000 mg/kg/day): 11.3 ± 0.5 days
Number of dead/total ([7]; neat oil oral 1000 mg/kg/day): 0/4
Number diseased/total ([7]; neat oil oral 1000 mg/kg/day): 4/4

— patent US6664406B1, “Nervonic acid derivatives, their preparation and use” (Croda International PLC, priority 1999, dated 2003)
